Experimental findings from BindingDB's records for doi:10.1021/jm00114a015 (National Institute of Diabetes and Digestive and Kidney …, 1991) are described below.

As usually defined, the Ki is a measure of affinity in units of concentration, obtained from inhibition or displacement. Read a high Ki as a looser hold on the target.

A short description of experiment [1]: Compound was tested for the inhibitory activity against Sigma opioid receptor by using [3H](+)-3-PPP as radioligand in guinea pig brain.
Test in experiment [2]: as above
This is another data set of the same source.

`CCN(CCc1ccc(Cl)c(Cl)c1)[C@@H]1CCCC[C@@H]1N1CCCC1` registered a Ki in experiment [1] of 3.5 nM.

`CCN(CCc1ccc(Cl)c(Cl)c1)[C@H]1CCCC[C@H]1N1CCCC1`: the Ki in experiment [2] worked out at 3.1 nM.

Consider `CN(Cc1ccc(Cl)c(Cl)c1)[C@H]1CCCC[C@H]1N1CCCC1`, for which the affinity in experiment [1], expressed as Ki, was 1.2 nM.

As for `CCCN(CCc1ccc(Cl)c(Cl)c1)[C@H]1CCCC[C@H]1N1CCCC1`, the affinity in experiment [2] corresponds to a Ki of 140 nM.

In turn, `CCCN(CCc1ccc(Cl)c(Cl)c1)[C@@H]1CCCC[C@@H]1N1CCCC1` registered a Ki in experiment [2] of 56 nM.
